Results as given in patent US20260007681A1, “INDOLE DERIVATIVES AS ESTROGEN RECEPTOR DEGRADERS” (REGENTS OF THE UNIVERSITY OF MICHIGAN, priority 2022, published 2026).

Assays:
[1] = target: ER (Homo sapiens (Human), UniProt P03372); assay: In-cell western blot analysis of relative ER percentage (Compounds B1-B278); assay type: cell-based; conditions: ER degradation, 16 hours, read-out: ICW DC50
Method: In-cell western blot analysis. Cells are seeded in multi-well plates (e.g., at 40,000 or 10,000 cells/well). Diluted compounds at certain concentration are added (final 0.5% DMSO) and cells are incubated for […] (e.g., 16 hours). Formaldehyde (e.g., PBS:FA=9:1) is added and followed by washing with PBS. The cells are blocked with Licor blocking buffer (Li-Cor). The relative ER percentage in treated cells are obtained by comparing the values of treated wells to those in untreated and DMSO-treated wells as 100%.
In-cell western blot analysis. a. seed cells in black-sided/clear bottom 96- or 384-well plates at 40,000 or 10,000 cells/well, overnight; b. add diluted compounds (final 0.5% DMSO), 16 hours. 16 h later, remove medium, add 100 μL or 25 μL of 3.7-4.0% formaldehyde (PBS:FA=9:1), RT 20 min, no shaking; c. wash with PBS, and permeabilized with 100 μL or 25 μL/well of 1×PBS+0.1% Triton X-100 10 minutes; d. block with 100 μL or 25 μL Licor blocking buffer (Li-Cor), RT 1 h, moderate shaking; d. Add 100 μL or 25 μL of anti-ER (cs-8644, 1:500-1,000)+GAPDH(Millipore MAB374, 1:1000) in Block+0.05% Tween 20. RT 2 h, gentle shaking. Negative control: cells plus secondary antibodies (no primary antibodies); e. wash×4 with PBS +0.05-0.1% Tween 20, gentel shaking; f. anti-rabbit-680 and anti-mouse-800 (both 1:1000 in LiCor block +0.05% Tween20, RT 1 h, gentle shaking, no light. LI-COR: 0.2% to reduce background; g. wash×4 with PBS+0.05% Tween 20, gental shaking; h. add 100 μL or 25 μL of PBS to each well and read on CLX plate reader. The relative ER percentage in treated cells were obtained by comparing the values of treated wells to those in untreated and DMSO-treated wells as 100%.

[2] = Cell growth assay (WST-8) (Compounds B1-B278); assay type: cell-based; conditions: 96 h; T47D cell line; WST-8, 4 days; read-out: Cell Growth Inhibition in T47D cell line IC50
Method: Cell Growth Assay. The cells are seeded at certain concentration (e.g., at 1500/well) in multi-well plates overnight. Cells are subsequently treated with the compounds. A certain period of time (e.g., 4 days) after the compound treatment, 10% WST-8 reagent is added to the culture medium and incubate under certain condiction (e.g., in a CO2 incubator at 37° C. for 2.5 hours). The absorbance is measured on each sample using a microplate reader at certain wavelength (e.g., 450 nm). The relative absorbance is calculated against the vehicle control from three individually repeats.
Cell Growth Assay. The cells were seeded at 1500/well in 96 well plates overnight. One day after the seeding, they were treated with indicated doses of compounds respectively. 4 days after the compound treatment, 10% WST-8 reagent was added to the culture medium and incubate in a CO2 incubator at 37° C. for 2.5 hours. Before reading, the plate was mixed gently on an orbital shaker for one minute to ensure homogeneous distribution of color. The absorbance was measured of each sample using a microplate reader at a wavelength of 450 nm. The relative absorbance was calculated against the vehicle control from three individually repeats.

ER, sequence (P03372 whole entry): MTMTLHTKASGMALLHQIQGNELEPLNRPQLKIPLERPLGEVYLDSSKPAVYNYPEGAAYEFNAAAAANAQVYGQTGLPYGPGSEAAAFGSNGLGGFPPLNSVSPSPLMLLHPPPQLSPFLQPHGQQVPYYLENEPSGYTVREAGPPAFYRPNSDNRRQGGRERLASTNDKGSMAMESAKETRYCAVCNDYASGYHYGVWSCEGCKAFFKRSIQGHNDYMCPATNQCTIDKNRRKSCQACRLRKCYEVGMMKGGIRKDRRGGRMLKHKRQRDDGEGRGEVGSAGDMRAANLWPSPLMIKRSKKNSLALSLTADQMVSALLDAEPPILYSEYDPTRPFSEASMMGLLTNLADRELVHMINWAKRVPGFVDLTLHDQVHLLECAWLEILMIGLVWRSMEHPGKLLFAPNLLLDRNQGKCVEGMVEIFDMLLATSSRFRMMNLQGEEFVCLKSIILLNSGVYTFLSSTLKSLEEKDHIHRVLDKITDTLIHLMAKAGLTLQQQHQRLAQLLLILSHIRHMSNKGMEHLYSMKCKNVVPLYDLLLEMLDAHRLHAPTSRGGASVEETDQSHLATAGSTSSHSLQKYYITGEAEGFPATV

SMILES | DC50 [1] [nM] | IC50 [2] [nM]
C[C@@H]1Cc2c([nH]c3ccccc23)[C@@H](c2c(F)cc(NC3CN(C(=O)CN4CCN5c6cc7c(cc6OC[C@@H]5C4)C(=O)N(C4CCC(=O)NC4=O)C7)C3)cc2F)N1CC(F)(F)CO (stereo partly drawn) [Compound B118, 3-((S)-3-(2-(3-((4-((1R,3R)-2-(2,2-difluoro-3-hydroxypropyl)-3-methyl-2,3,4,9-tetrahydro-1H-pyrido[3,4-b]indol-1-yl)-3,5-difluorophenyl)amino)azetidin-1-yl)-2-oxoethyl)-8-oxo-1,2,3,4,4a,5,8,10-octahydro-9H-pyrazino[1′,2′:4,5][1,4]oxazino[2,3-f]isoindol-9-yl)piperidine-2,6-dione] | 10 to 100 | 1 to 10
C[C@@H]1Cc2c([nH]c3ccccc23)[C@@H](c2c(F)cc(C3CCN(C(=O)CN4CCN5c6cc7c(cc6OC[C@@H]5C4)C(=O)N(C4CCC(=O)NC4=O)C7)CC3)cc2F)N1CC(F)F (stereo partly drawn) [Compound B119, 3-((S)-3-(2-(4-(4-((1R,3R)-2-(2,2-difluoroethyl)-3-methyl-2,3,4,9-tetrahydro-1H-pyrido[3,4-b]indol-1-yl)-3,5-difluorophenyl)piperidin-1-yl)-2-oxoethyl)-8-oxo-1,2,3,4,4a,5,8,10-octahydro-9H-pyrazino[1′,2′:4,5][1,4]oxazino[2,3-f]isoindol-9-yl)piperidine-2,6-dione] | 10 to 100 | < 1
C[C@@H]1Cc2c([nH]c3ccccc23)[C@@H](c2cnc(N3CC4(CCC(CN5CCN6c7cc8c(cc7OC[C@@H]6C5)C(=O)N(C5CCC(=O)NC5=O)C8)CC4)C3)nc2)N1CC(F)F (stereo partly drawn) [Compound B120, 3-((S)-3-((2-(5-((1R,3R)-2-(2,2-difluoroethyl)-3-methyl-2,3,4,9-tetrahydro-1H-pyrido[3,4-b]indol-1-yl)pyrimidin-2-yl)-2-azaspiro[3.5]nonan-7-yl)methyl)-8-oxo-1,2,3,4,4a,5,8,10-octahydro-9H-pyrazino[1′,2′:4,5][1,4]oxazino[2,3-f]isoindol-9-yl)piperidine-2,6-dione] | 10 to 100 | 1 to 10
C[C@@H]1Cc2c([nH]c3ccccc23)[C@@H](c2cnc(N3CCC(CCN4CCN5c6cc7c(cc6OC[C@@H]5C4)C(=O)N(C4CCC(=O)NC4=O)C7)CC3)nc2)N1CC(F)F (stereo partly drawn) [Compound B121, 3-((S)-3-(2-(1-(5-((1R,3R)-2-(2,2-difluoroethyl)-3-methyl-2,3,4,9-tetrahydro-1H-pyrido[3,4-b]indol-1-yl)pyrimidin-2-yl)piperidin-4-yl)ethyl)-8-oxo-1,2,3,4,4a,5,8,10-octahydro-9H-pyrazino[1′,2′:4,5][1,4]oxazino[2,3-f]isoindol-9-yl)piperidine-2,6-dione] | < 10 | 1 to 10
C[C@@H]1Cc2c([nH]c3ccccc23)[C@@H](c2cnc(N3CC[C@H](CCN4CCN5c6cc7c(cc6OC[C@@H]5C4)C(=O)N(C4CCC(=O)NC4=O)C7)C3)nc2)N1CC(F)F (stereo partly drawn) [Compound B122, 3-((S)-3-(2-((S)-1-(5-((1R,3R)-2-(2,2-difluoroethyl)-3-methyl-2,3,4,9-tetrahydro-1H-pyrido[3,4-b]indol-1-yl)pyrimidin-2-yl)pyrrolidin-3-yl)ethyl)-8-oxo-1,2,3,4,4a,5,8,10-octahydro-9H-pyrazino[1′,2′:4,5][1,4]oxazino[2,3-f]isoindol-9-yl)piperidine-2,6-dione] | 10 to 100 | 1 to 10
C[C@@H]1Cc2c([nH]c3ccccc23)[C@@H](c2cnc(N3CCC(OCCN4CCN5c6cc7c(cc6OC[C@@H]5C4)C(=O)N([C@@H]4CCC(=O)NC4=O)C7)CC3)nc2)N1CC(F)F [Compound B123, (R)-3-((S)-3-(2-((1-(5-((1R,3R)-2-(2,2-difluoroethyl)-3-methyl-2,3,4,9-tetrahydro-1H-pyrido[3,4-b]indol-1-yl)pyrimidin-2-yl)piperidin-4-yl)oxy)ethyl)-8-oxo-1,2,3,4,4a,5,8,10-octahydro-9H-pyrazino[1′,2′:4,5][1,4]oxazino[2,3-f]isoindol-9-yl)piperidine-2,6-dione] | 10 to 100 | 1 to 10
